Laboratory results reported in patent publication US20230126987A1, “METHODS FOR TREATING CYTOKINE STORM SYNDROME AND RELATED DISEASES” (Generos Biopharma Ltd., priority 2020, published 2023).

Assays:
[1] = test system: RSV-infected lung epithelial cells; conditions: cited from earlier work
[2] = test system: LPS-induced pro-inflammatory cytokines; assay: LPS-induced acute lung injury model in mice, BALF cytokines by ELISA; conditions: airway LPS 1 µg day 1
[3] = test system: H5N1 virus; conditions: co-administration with zanamivir, compared to antiviral treatment alone; cited from earlier work
[4] = test system: H2N2 influenza virus; conditions: intraperitoneally on days 4 to 10 after exposure to H2N2 influenza virus, following the onset of illness; cited from earlier work
[5] = test system: LPS-induced pro-inflammatory cytokines; assay: LPS-induced sepsis model in mice, plasma cytokines by ELISA; assay type: in vivo, Balb/c mice; conditions: i.p. 1 hour before LPS 10 mg/kg i.p., DEX 3 mg/kg, Nib1 5 mg/kg, 4 hours after LPS
Procedure: FIGS. 2A and 2B show the cytokine levels of TNFα and IL-6, respectively, in serum as measured by an ELISA kit. […] Whole blood was collected at 4 hours after LPS injection, and the plasma was extracted for ELISA measurement. *indicates P<0.05, **indicates P<0.01, *** indicates P<0.001, and **** indicates P<0.0001.
After 1 hour, all the animals were exposed to lethal dose of LPS (10 mg/kg, 2 mg/mL, i.p., Solarbio L8880). All animals were sacrificed 4 hours after LPS injection for tissue and whole blood collection.
FIGS. 2A and 2B show the cytokine levels of TNFα and IL-6, respectively, in the serum as measured by an ELISA kit. […] Whole blood was collected at 4 hours after LPS injection and plasma was extracted for ELISA measurement. *indicates P<0.05, **indicates P<0.01, *** indicates P<0.001, and **** indicates P<0.0001.

[6] = test system: STAT5; assay: STAT5 inhibition in Jurkat cells, immunoblotting of IFNβ-induced STAT5 phosphorylation (pY694)
[7] = test system: LPS-induced pro-inflammatory cytokines; assay: Repetitive low dose LPS challenge sepsis-like persistent inflammation model in mice, whole blood cell cytokine RT-qPCR; assay type: in vivo, Balb/c mice; conditions: LPS 10 µg/mouse i.p. daily for 4 days, oral DEX 3 mg/kg or Nib1 0.6 mg/kg daily, whole blood cells RT-qPCR
Excerpt: FIGS. 4A, 4B, and 4C show the cytokine levels of IL-1β, IL-6, and TNFα, respectively, in the whole blood cells as measured by RT-qPCR. […] At the end of experiment, whole blood cells were collected and the total RNA was extracted for RT-qPCR measurement of the cytokine mRNA. *indicates P<0.05, **indicates P<0.01, *** indicates P<0.001.
At the end of the experiment, all animals were sacrificed, and whole blood cells were purified by centrifugation and subjected to standard RT-qPCR detection of IL-6 and TNFα mRNA levels according to the manufacturer’s instructions.

[8] = test system: human PBMC; assay: LPS-induced cytokine release in human PBMC, Luminex multiplex cytokine profiling; assay type: cell-based; conditions: 10 µM 1 h before LPS 100 ng/ml for 4 h; supernatant; relative to DMSO = 100%
[9] = 3 mg/kg po qd 4 days, compared to DMSO-treated group, p<0.05

SMILES: CCCCC/C=C/C=C1/C(=O)C=C[C@@H]1C/C=C\CCCC(=O)O [15d-PGJ2]
- production of IL-1α, IL-6, and TNF cytokines, CXCL8 and CCL5 chemokines, and ICAM-1 [1]: decreased production

SMILES: CC(=O)OCC(=O)[C@@]1(O)[C@H](C)C[C@H]2[C@@H]3CCC4=CC(=O)C=C[C@]4(C)[C@@]3(F)[C@@H](O)C[C@@]21C [DEX, dexamethasone acetate]
- reduction of IL-6 level in bronchoalveolar lavage fluid [2, 9]: about 50%
- reduction of TNFα level in bronchoalveolar lavage fluid [2, 9]: about 50%

SMILES: Nc1ccc(O)c(C(=O)O)c1 [Mesalamine]
- cellular infiltrate [3]: diminished cellular infiltrate
- survival [3]: improved survival

SMILES: Cc1ccc(C)c(OCCCC(C)(C)C(=O)O)c1 [gemfibrozil]
- survival [4]: significantly increased survival

SMILES: O=c1[nH]c2ccccc2n1C1CCN(CCCC(c2ccc(F)cc2)c2ccc(F)cc2)CC1 [pimozide, 1-[1-[4,4-bis(4-fluorophenyl)butyl]-4-piperidinyl]-1,3-dihydro-2H-benzimidazole-2-one]
- plasma level of TNFα ([5]; vs DMSO (DEX p<0.0001, Nib1 p<0.01)): significantly reduced
- plasma level of IL-6 ([5]; vs DMSO (DEX p<0.01, Nib1 p<0.001)): significantly reduced
- reduction of the activation of STAT5 (phosphorylation) ([6]; Jurkat cells pretreated with 10 µM for 1 hour, then IFNβ 50 ng/ml for 30 min): more than 50%
- Phospho-STAT5 signal ([6]; Jurkat cells treated with 50 µM, IFNβ 50 ng/ml for 30 min): completely undetectable
- TNFα level ([7]; TNFα returned to basal level): no difference was detected
- IL-1β level ([7]; vs DMSO (DEX p<0.05, Nib1 p<0.001)): significantly reduced
- IL-6 level ([7]; vs DMSO (both p<0.05)): significantly reduced
- secretion of IL4 [8]: significantly reduced
- secretion of IL17A [8]: significantly reduced
- secretion of IL23 [8]: significantly reduced
- secretion of IL-1β [8]: significantly reduced
- secretion of IL-6 [8]: significantly reduced
- level of IL-6 in bronchoalveolar lavage fluid ([2]; 0.6 mg/kg po qd 4 days, vs DMSO, p<0.001): significantly reduced
- level of TNFα in bronchoalveolar lavage fluid ([2]; 0.6 mg/kg po qd 4 days, vs DMSO, p<0.01): significantly reduced
